Laboratory results published in publication PMC6021367, “Regulated intratumoral expression of IL-12 using a RheoSwitch Therapeutic System® (RTS®) gene switch as gene therapy for the treatment of glioma” (Cancer Gene Therapy, 2018).

Columns and labels:
[1] = Plasma, CSF and brain pharmacokinetics of veledimex in mouse; type: in vivo, C57BL/6 mice
Procedure: (§1) Brain tumor, plasma and cerebrospinal fluid (CSF) samples were analyzed for veledimex using liquid chromatography/tandem mass spectrometry method. Brain tumor samples were homogenized in homogenization solution (10:90/v:v/acetonitrile:0.1% Tween 80 in water) with ratio of 1 g to 9 mL and proteins precipitated. Veledimex concentrations were calculated with a Quadratic 1/x concentration weighting linear regression over concentration ranges of 0.0500 to 50 ng/mL using deuterated (D3) veledimex as an internal standard.
(§2) All values are expressed as the mean ± standard error of the mean. Statistical analysis was performed using a one-way analysis of variance with Dunnets post hoc test to compare differences between the groups versus control. Increased survival fractions were studied using Kaplan–Meier survival plot followed with a log-rank and Gehan–Wilcoxon tests to assess the significance of the differences. All statistical analyses were performed using GraphPrism 5 (GraphPad Software, Inc., CA, USA). Differences between groups were considered significant when P < 0.05. Pharmacokinetics and tissue levels of veledimex was determined using non-compartmental analysis module of the pharmacokinetic software Phoenix 64 WinNonlin.
Veledimex was administered to separate groups of C57BL/6 mice at a single dose via oral gavage (PO) at 225 mg/m^2. Terminal blood and CSF and brain samples were collected at 1, 2, 4, 6, 24 and 48 h post dose.

[2] = Plasma and CSF pharmacokinetics of veledimex in cynomolgus monkey; type: in vivo; details: cynomolgus monkeys
Procedure: as §1, §2
A single oral dose of veledimex at 120 mg was administered to six cynomolgus monkeys (3/gender) and plasma and CSF levels were assessed through 48 h post treatment. Since no gender-related differences were observed, the data from male and female animals were pooled.

[3] = Brain veledimex level in in vivo mechanistic study (increasing vector dose, fixed veledimex dose); parameters: species or system C57BL/6 mice; details: mean ± SEM
Procedure: as §1
In this study mice were administered Ad-RTS-mIL-12 1 × 10^8 to 5 × 10^9 vp intracranial at the coordinates stated above with veledimex administered gavage at a fixed dose of 100 mg/m^2/day PO, and brain veledimex, viral copy number and the ability to turn on the switch to elicit local production of IL-12 mRNA and IL-12 protein expressions were assessed. […] The 5 × 10^9 vp dose was chosen for all subsequent studies.

GL-261 glioma = test: Survival in syngeneic mouse GL-261 orthotopic glioma model; type: in vivo, C57BL/6 mice; details: temozolomide 300 mg/m^2 qdx5, anti-PD-1 15 mg/m^2 q4dx5
Procedure: At 5 days prior to treatment initiation, female C57BL/6 (C57BL/6NHsd) mice 6–7 weeks old (Envigo; Indianapolis, IN) were inoculated intracranially with 3 µL of GL-261 murine glioblastoma tumor cells at 1 × 10^5 cells/mouse. Implant coordinates were 1 mm anterior and 2 mm lateral to the bregma, at a depth of 3 mm. Buprenorphine (Reckitt Benckiser Healthcare; UK) was administered to the mice approximately 30 min prior to surgery. After 5 days, mice were randomized into one of the treatment groups. For those mice administered Ad-RTS-mIL-12, the vector was administered through the same bur hole at the coordinates above in a constant volume of 3–5 μL. Veledimex was administered via oral gavage once daily for 14 consecutive days.
as §2
In this model, each C57BL/6 mouse received 1 × 10^5 GL-261 glioma cells via intracranial injection ~2 mm distal to the intersection of the coronal and sagittal suture. On day 5, the animals were randomly assigned to one of the treatment groups. Animals were monitored for survival.
1 × 10^5 GL-261 glioma cells were administered into the brain. Separate groups of 12 C57BL/6 mice each were randomly assigned to one of the treatment groups. On day 1 animals were administered 1 × 10^5 GL-261 glioma cells intracranially. On day 5, Ad-RTS-mIL-12 at 5 × 10^9 vp+veledimex PO at 1–30 mg/m^2/day PO was administered for 14 consecutive days and the time to disease progression and death was studied. […] All values are expressed as the mean for >12 animals per group.

[4] = C57BL/6 mice, single oral dose 225 mg/m^2, CSF
[5] = C57BL/6 mice, single oral dose 225 mg/m^2, brain

Compound: CCC[C@@H](N(NC(=O)c1cccc(OC)c1CC)C(=O)c1cc(C)cc(C)c1)C(C)(C)C [veledimex]
- Cmax and AUC0-t ratio between CSF and plasma ([1]; C57BL/6 mice, single oral dose 225 mg/m^2): 0.34%
- CSF AUC0-t [1, 4]: 466 ng·h/mL
- CSF Cmax [1, 4]: 14 ng/mL
- AUC0-t in the brain [1, 5]: 25325 ng·h/mL
- Cmax in the brain [1, 5]: 1794 ng/mL
- Cmax in plasma ([1]; C57BL/6 mice, single oral dose 225 mg/m^2, plasma): 4153 ng/mL
- Blood–brain barrier crossing ([1]; mice, orally administered): crosses the blood–brain barrier
- Blood–brain barrier crossing ([2]; orally administered): crosses the blood–brain barrier
- AUC0-t ratio between CSF and plasma ([2]; single oral dose 120 mg): 0.7 ± 0.2
- veledimex brain uptake ([2]; single oral dose 120 mg): ~ 1%
- AUC0-t in CSF ([2]; single oral dose 120 mg, CSF): 42.5 ± 17.4 ng·h/mL
- Cmax in CSF ([2]; single oral dose 120 mg, CSF): 2.07 ± 0.91 ng/mL
- AUC0-t in plasma ([2]; single oral dose 120 mg, plasma): 5887 ± 2203 ng·h/mL
- Cmax in plasma ([2]; single oral dose 120 mg, plasma, males and females pooled): 327 ± 142 ng/mL
- mean plasma Tmax ([2]; single oral dose 120 mg, post dose): ~ 4 h
- Brain veledimex Cmax ([3]; veledimex 100 mg/m^2/day PO + Ad-RTS-mIL-12 1 × 10^8 vp intracranial): 515 ± 53 ng/g
- Brain veledimex Cmax ([3]; veledimex 100 mg/m^2/day PO + Ad-RTS-mIL-12 1 × 10^9 vp intracranial): 311 ± 99 ng/g
- Brain veledimex Cmax ([3]; veledimex 100 mg/m^2/day PO + Ad-RTS-mIL-12 5 × 10^9 vp intracranial): 378 ± 68 ng/g

Compound: Cn1nnc2c(C(N)=O)ncn2c1=O [temozolomide]
- median survival (GL-261 glioma; bevacizumab 30 mg/m^2 biwk ×3): 33 days
- animals surviving to terminal killing (GL-261 glioma; bevacizumab 30 mg/m^2 biwk ×3, day 85): 14%
- tumor at terminal killing (GL-261 glioma): all mice having tumor present

Compound: Bevacizumab
- median survival (GL-261 glioma; bevacizumab 30 mg/m^2 biwk ×3): 20 days
